Laboratory results as given in US7135489B2, “Crystalline form of 4-[5-methyl-3-phenylisoxazol-4-yl] benzenesulfonamide” (G. D. Searle & Co., priority 1996, dated 2006).

Columns and labels:
Type in all cases: physicochemical
[1] = Thermal stability of crystal form
Experimental: Melting points were performed either on a Thomas Hoover melting point apparatus or a Mettler FP900 Thermosystem melting point apparatus. Melting ranges were determined by differential scanning calorimetry on a TA Instruments Differential Scanning Calorimeter (Model 2100 controller, Model 912 dual calorimeter). The sample (1-2 mg) was placed in an unsealed aluminum pan and heated at 10° C./minute.

[2] = Stability after mechanical grinding (milling)
[3] = Stability of crystalline form compared with the earlier form; conditions: compared with earlier material Form A

Row | SMILES | thermal stability [1] | stability after mechanical grinding (milling) [2] | stability relative to Form A [3]
1 | Cc1onc(-c2ccccc2)c1-c1ccc(S(N)(=O)=O)cc1 [Form A, 4-[5-methyl-3-phenylisoxazol-4-yl]benzenesulfonamide] | thermally unstable | unstable | 
2 | Cc1onc(-c2ccccc2)c1-c1ccc(S(N)(=O)=O)cc1 [Form B, 4-[5-methyl-3-phenylisoxazol-4-yl]benzenesulfonamide] |  |  | more stable
